Data taken from US8435978B2, “Substituted sulfonamide compounds” (Gruenenthal GmbH, priority 2006, dated 2013).

System: Bradykinin Receptor 1 (B1R)-mediated formation of IL-6 in IMR-90 fibroblasts
Assay: Inhibition of the B1R-mediated formation of IL-6 in IMR-90 fibroblasts (IL-6 ELISA)
Format: cell-based, human
Settings: antagonist 10 μM
Source text: The pro-inflammatory cytokines TNFα (or IL-1) lead in various cell types, such as, for example, fibroblasts, to an activation, which brings about inter alia enhanced expression of B1R. Subsequent stimulation of these cells with a B1R agonist results in the formation of further pro-inflammatory cytokines, such as, for example, IL-6. The chronification of inflammations is thereby promoted. Treatment with a B1R antagonist should lead to inhibition of the B1R agonist-induced IL-6 formation. By way of example, a B1R antagonist identified in the FLIPR assay was tested in this respect.
The human fibroblast cell line IMR-90 (ATCC, CCL-186) was passaged in culture medium (Ham's F12 nutrient mixture, Gibco Invitrogen GmbH, Karlsruhe Germany with 10% FBS, fetal bovine serum, Gibco, Invitrogen GmbH, Karlsruhe Germany; 0.1 mM non-essential amino acids, Gibco, 11140-035, 1 mM sodium pyruvate, Euro Clone, ECM0542D; 1.5 g/l sodium bicarbonate, Euro Clone, ECM0980D) on 80 cm^2 bottles (Nunc; 178905) (ratio:1:2 to 1:6; medium replaced every 3-4 days) and plated out for experiments on 96-well plates (Greiner bio-one; No. 655180) with 1×10^5 cells per well. The cells are incubated overnight at 37° C. and 5% CO2.
For activation with TNFα (human, recombinant, expressed in E. coli, SIGMA-ALDRICH T6674, 10 ng/ml) alone or TNFα combined with the human B1R agonist Lys-Des-Arg^9-bradykinin (Lys-Des-Arg^9-BK), the IMR-90 fibroblasts were incubated overnight at 37° C. and 5% CO2 in culture medium. The final concentrations of Lys-Des-Arg^9-BK were 1000 nM or 10 nM. Some IMR-90 stimulation batches additionally contained the B1R antagonist of Example 8 in a final concentration of 10 μM. 24 hours after activation, in each case 150 μl of culture medium were removed from all the different stimulation batches and were transferred to a new plate and frozen. After thawing of the supernatants, the IL-6 content was determined by means of a commercially available IL-6 Elisa.
ELISA Assay (Procedure, Modified According the Manufacturer's Specifications):
Elisa kit: from: BIOSOURCE; CytoSets™, Art. No.: CHC 1264
The above-described processes were carried out with Example compound 8.

[1] = TNFα 10 ng/ml, 24 hours after activation

inhibition of the activation of IL-6 formation (TNFα + relatively high dose of Lys-Des-Arg^9-BK (1000 nM)): still partially inhibited | inhibition of the activation of IL-6 formation (TNFα + relatively low dose of Lys-Des-Arg^9-BK (10 nM)): eliminated almost completely
Compound: COc1cc(C)c(S(=O)(=O)N2CCCCC2COCC(=O)N2CCN(C3CCN(C)CC3)CC2)c(C)c1 (centres unmarked) [Example 8, 2-[1-(4-methoxy-2,6-dimethyl-phenylsulfonyl)-piperidin-2-ylmethoxy]-1-[4-(1-methyl-piperidin-4-yl)-piperazin-1-yl]-ethanone]
Production of IL-6 (pg/ml) by IMR-90 fibroblasts, TNFα + Lys-Des-Arg^9-BK (10 nM) [1]: 119 pg/mL | Production of IL-6 (pg/ml) by IMR-90 fibroblasts, TNFα + Lys-Des-Arg^9-BK (1000 nM) [1]: 483 pg/mL | Production of IL-6 (pg/ml) by IMR-90 fibroblasts, TNFα alone [1]: 136 pg/mL
